{"source": "patent US20250089717A1", "about": "“FUNGICIDAL HALOMETHYL KETONES, HYDRATES AND ENOL ETHERS AND THEIR MIXTURES” (FMC CORPORATION, priority 2023, published 2025)", "data": [{"system": "Phakopsora pachyrhizi", "assay": "Test A: preventive spray on soybean seedlings, Asian soybean rust, visual disease rating", "format": "in vivo", "settings": "rate 10 ppm", "source_text": "(§1) General protocol for preparing test suspensions for Test A: the test compounds were first dissolved in acetone in an amount equal to 3% of the final volume and then suspended at the desired concentration (in ppm) in acetone and purified water (50/50 mix by volume) containing 250 ppm of the surfactant PEG400 (polyhydric alcohol esters). The resulting test suspensions were then used in Test A.\n(§2) The test solution was sprayed to the point of run-off on soybean seedlings. The following day the seedlings were inoculated with a spore suspension of Phakopsora pachyrhizi (the causal agent of Asian soybean rust) and incubated in a saturated atmosphere at 22° C. for 24 h and then moved to a growth chamber at 22° C. for 8 days, after which time visual disease ratings were made.\n(§3) A rating of 100 indicates 100% disease control and a rating of 0 indicates no disease control (relative to the controls).", "units": {"Test A rating (100 = 100% disease control, 0 = no disease control relative to the controls)": "%"}, "values": [{"smiles": "CCO/C(=C\\Oc1ccc(Cn2cc(COC(=O)C(=O)OC)cn2)cc1)C(F)(F)F", "note": "[Compound 48, 1-[[1-[[4-[[(1Z)-2-ethoxy-3,3,3-trifluoro-1-propen-1-yl]oxy]phenyl]methyl]-1H-pyrazol-4-yl]methyl]2-methyl ethanedioate]", "Test A rating (100 = 100% disease control, 0 = no disease control relative to the controls)": 100}, {"smiles": "CCO/C(=C\\Oc1ccc(Cn2cc(COCC3CC3)cn2)c(F)c1)C(F)(F)F", "note": "[Compound 68]", "Test A rating (100 = 100% disease control, 0 = no disease control relative to the controls)": 100}, {"smiles": "CCO/C(=C\\Oc1ccc(Cn2cc(COC(=O)OC)cn2)cc1)C(F)(F)F", "note": "[Compound 52, 1-[[4-[[(1Z)-2-ethoxy-3,3,3-trifluoro-1-propen-1-yl]oxy]phenyl]methyl]-1H-pyrazol-4-yl]methyl methyl carbonate]", "Test A rating (100 = 100% disease control, 0 = no disease control relative to the controls)": 100}, {"smiles": "CCO/C(=C\\Oc1ccc(Cn2cccc(C(=O)N(C)OCC3CC3)c2=O)cc1)C(F)(F)F", "note": "[compound 102]", "Test A rating (100 = 100% disease control, 0 = no disease control relative to the controls)": 99}, {"smiles": "CCO/C(=C\\Oc1ccc(Cn2cc(COCC3(C)CC3)cn2)cc1)C(F)(F)F", "note": "[compound 57]", "Test A rating (100 = 100% disease control, 0 = no disease control relative to the controls)": 100}, {"smiles": "C#CCONC(=O)c1cccc(Cc2ccc(O/C=C(\\OCC)C(F)(F)F)cc2)n1", "note": "[Compound 125, 2-[[4-1[[(1Z)-2-ethoxy-3,3,3-trifluoro-1-propen-1-yl]oxy]phenyl]methyl]-N-(2-propyn-1-yloxy)-6-pyridinecarboxamide]", "Test A rating (100 = 100% disease control, 0 = no disease control relative to the controls)": 100}, {"smiles": "CCO/C(=C\\Oc1ccc(Cc2ccnc(C(=O)NOCC(F)(F)F)c2)cc1)C(F)(F)F", "note": "[Compound 133, 4-[[4-1[[(1Z)-2-ethoxy-3,3,3-trifluoro-1-propen-1-yl]oxy]phenyl]methyl]-N-(2,2,2-trifluoroethoxy)-2-pyridinecarboxamide]", "Test A rating (100 = 100% disease control, 0 = no disease control relative to the controls)": 100}, {"smiles": "CCO/C(=C\\Oc1ccc(Cn2cc(C(=NOCC3CC3)OC)cn2)cc1)C(F)(F)F", "note": "[compound 34]", "Test A rating (100 = 100% disease control, 0 = no disease control relative to the controls)": 97}, {"smiles": "CCO/C(=C\\Oc1ccc(Cn2cc(COC(=O)C(F)(F)Cl)cn2)cc1)C(F)(F)F", "note": "[compound 19]", "Test A rating (100 = 100% disease control, 0 = no disease control relative to the controls)": 100}, {"smiles": "CCO/C(=C\\Oc1ccc(Cn2cc(C(N)=NO)cn2)cc1)C(F)(F)F", "note": "[compound 56]", "Test A rating (100 = 100% disease control, 0 = no disease control relative to the controls)": 84}, {"smiles": "CCO/C(=C\\Oc1ccc(Cn2cc(COC(=O)CC)cn2)c(F)c1)C(F)(F)F", "note": "[Compound 77]", "Test A rating (100 = 100% disease control, 0 = no disease control relative to the controls)": 100}, {"smiles": "CCO/C(=C\\Oc1ccc(Cn2cc(COC(=O)CC#N)nn2)cc1)C(F)(F)F", "note": "[Compound 9]", "Test A rating (100 = 100% disease control, 0 = no disease control relative to the controls)": 0}, {"smiles": "C#CCONC(=O)c1cccn(Cc2ccc(O/C=C(\\OCC)C(F)(F)F)cc2)c1=O", "note": "[compound 100]", "Test A rating (100 = 100% disease control, 0 = no disease control relative to the controls)": 98}, {"smiles": "CCO/C(=C\\Oc1ccc(Cc2ccnc(C(=O)NOCC3CC3)c2)cc1)C(F)(F)F", "note": "[Compound 132, 4-[[4-1[[(1Z)-2-ethoxy-3,3,3-trifluoro-1-propen-1-yl]oxy]phenyl]methyl]-N-(cyclopropylmethoxy)-2-pyridinecarboxamide]", "Test A rating (100 = 100% disease control, 0 = no disease control relative to the controls)": 100}, {"smiles": "C=C=CC(=O)NCc1cnn(Cc2ccc(OCC3(C(F)(F)F)OCCO3)cc2)c1", "note": "[Compound 84]", "Test A rating (100 = 100% disease control, 0 = no disease control relative to the controls)": 99}, {"smiles": "C=CCON(CC)C(=O)c1cnn(Cc2ccc(O/C=C(\\OCC)C(F)(F)F)cc2)c1", "note": "[compound 41]", "Test A rating (100 = 100% disease control, 0 = no disease control relative to the controls)": 94}, {"smiles": "CCO/C(=C\\Oc1ccc(Cn2cc(COC(=O)C(C)(C)C)cn2)c(F)c1F)C(F)(F)F", "note": "[Compound 72]", "Test A rating (100 = 100% disease control, 0 = no disease control relative to the controls)": 100}, {"smiles": "CCO/C(=C\\Oc1ccc(Cn2cc(C(=O)NOCC3CC3)cn2)c(F)c1F)C(F)(F)F", "note": "[Compound 80]", "Test A rating (100 = 100% disease control, 0 = no disease control relative to the controls)": 100}, {"smiles": "C#CCON(C)C(=O)c1cccn(Cc2ccc(O/C=C(\\OCC)C(F)(F)F)cc2)c1=O", "note": "[compound 99]", "Test A rating (100 = 100% disease control, 0 = no disease control relative to the controls)": 92}, {"smiles": "CCO/C(=C\\Oc1ccc(Cn2cc(C(=O)NOCC=CCl)cn2)cc1)C(F)(F)F", "note": "[compound 32]", "Test A rating (100 = 100% disease control, 0 = no disease control relative to the controls)": 100}, {"smiles": "CCOC(=O)OCc1cnn(Cc2ccc(OCC3(C(F)(F)F)OCCO3)cc2)c1", "note": "[Compound 85]", "Test A rating (100 = 100% disease control, 0 = no disease control relative to the controls)": 86}, {"smiles": "CCO/C(=C\\Oc1ccc(Cn2cc(COC3CCC3)cn2)cc1)C(F)(F)F", "note": "[compound 59]", "Test A rating (100 = 100% disease control, 0 = no disease control relative to the controls)": 100}, {"smiles": "CCO/C(=C\\Oc1ccc(Cn2cc(COC(=O)CC)cn2)c(F)c1F)C(F)(F)F", "note": "[Compound 70]", "Test A rating (100 = 100% disease control, 0 = no disease control relative to the controls)": 100}, {"smiles": "CCO/C(=C\\Oc1ccc(Cn2cc(COC(=O)C3CCCC3)cn2)cc1)C(F)(F)F", "note": "[compound 29]", "Test A rating (100 = 100% disease control, 0 = no disease control relative to the controls)": 100}, {"smiles": "C=CCOC(=O)Cc1cnn(Cc2ccc(O/C=C(\\OCC)C(F)(F)F)cc2)c1", "note": "[compound 14]", "Test A rating (100 = 100% disease control, 0 = no disease control relative to the controls)": 96}]}, {"system": "Phakopsora pachyrhizi", "assay": "Test A: preventive spray on soybean seedlings, Asian soybean rust, visual disease rating", "format": "in vivo", "settings": "rate 10 ppm, read-out: Test A rating (100 = 100% disease control, 0 = no disease control relative to the controls)", "source_text": "as §1, §2, §3", "units": {"pest or weed control at 10 ppm": "%"}, "values": [{"smiles": "C=CCONC(=O)c1cccc(Cc2ccc(O/C=C(\\OCC)C(F)(F)F)cc2)n1", "note": "[Compound 109, 2-[[4-[[(1Z)-2-ethoxy-3,3,3-trifluoro-1-propen-1-yl]oxy]phenyl]methyl]-N-(2-propen-1-yloxy)-6-pyridinecarboxamide]", "pest or weed control at 10 ppm": 100}, {"smiles": "CCO/C(=C\\Oc1ccc(Cc2cccc(C(=O)N(C)OCc3ccccc3)n2)cc1)C(F)(F)F", "note": "[compound 122]", "pest or weed control at 10 ppm": 100}, {"smiles": "C=CCON(C)C(=O)c1cc(Cc2ccc(O/C=C(\\OCC)C(F)(F)F)cc2)ccn1", "note": "[compound 135]", "pest or weed control at 10 ppm": 100}, {"smiles": "CCO/C(=C\\Oc1ccc(Cc2cccc(C(=O)NOCc3ccccc3)n2)cc1)C(F)(F)F", "note": "[compound 126]", "pest or weed control at 10 ppm": 99}, {"smiles": "C=CCON=C(OCC)c1cnn(Cc2ccc(O/C=C(\\OCC)C(F)(F)F)cc2)c1", "note": "[Compound 40, ethyl 1-[[4-[[(1Z)-2-ethoxy-3,3,3-trifluoro-1-propen-1-yl]oxy]phenyl]methyl]-N-(2-propen-1-yloxy)-1H-pyrazole-4-carboximidate]", "pest or weed control at 10 ppm": 100}, {"smiles": "CCOC(=O)C(OC(C)=O)c1cnn(Cc2ccc(O/C=C(\\OCC)C(F)(F)F)cc2)c1", "note": "(stereo not drawn) [Compound 54, ethyl α-(acetyloxy)-1-[[4-[[(1Z)-2-ethoxy-3,3,3-trifluoro-1-propen-1-yl]oxy]phenyl]methyl]-1H-pyrazole-4-acetate]", "pest or weed control at 10 ppm": 100}]}, {"system": "Phakopsora pachyrhizi", "assay": "Test A: preventive spray on soybean seedlings, Asian soybean rust, visual disease rating", "format": "in vivo", "settings": "rate 50 ppm", "source_text": "as §1, §2, §3", "units": {"Test A rating (100 = 100% disease control, 0 = no disease control relative to the controls)": "%"}, "values": [{"smiles": "O=C(CC(F)(F)F)OCc1cnn(Cc2ccc(OCC3(C(F)(F)F)OCCO3)cc2)c1", "note": "[Compound 93]", "Test A rating (100 = 100% disease control, 0 = no disease control relative to the controls)": 100}, {"smiles": "C=CCC(=O)OCc1cnn(Cc2ccc(OCC3(C(F)(F)F)OCCO3)cc2)c1", "note": "[Compound 89]", "Test A rating (100 = 100% disease control, 0 = no disease control relative to the controls)": 100}, {"smiles": "CCO/C(=C\\Oc1ccc(Cn2cc(COC(=O)NC)cn2)cc1)C(F)(F)F", "note": "[compound 15]", "Test A rating (100 = 100% disease control, 0 = no disease control relative to the controls)": 100}, {"smiles": "CCO/C(=C\\Oc1ccc(Cn2cc(COC(=O)N(C)C)cn2)cc1)C(F)(F)F", "note": "[compound 8]", "Test A rating (100 = 100% disease control, 0 = no disease control relative to the controls)": 60}]}, {"system": "Phakopsora pachyrhizi", "assay": "Test A: preventive spray on soybean seedlings, Asian soybean rust, visual disease rating", "format": "in vivo", "settings": "rate 50 ppm, read-out: Test A rating (100 = 100% disease control, 0 = no disease control relative to the controls)", "source_text": "as §1, §2, §3", "units": {"pest or weed control at 50 ppm": "%"}, "values": [{"smiles": "CCO/C(=C\\Oc1ccc(Cn2cc(CC(=O)N(C)OC)cn2)cc1)C(F)(F)F", "note": "[Compound 5, 1-[[4-[[(1Z)-2-ethoxy-3,3,3-trifluoro-1-propen-1-yl]oxy]phenyl]methyl]-N-methoxy-N-methyl-1H-pyrazole-4-acetamide]", "pest or weed control at 50 ppm": 94}]}]}
